The target in one assay is BRM (Homo sapiens, UniProt P51531). Kind of assay: ATPase catalytic activity assay of BRM (ADP-Glo). The assay is classed as biochemical. The note with it: 30 nM BRM, 400 μM ATP; for IC50: read-out: BRM IC50 (μM)*. The method, then: (§1) The ATPase catalytic activity of BRM or BRG-1 was measured by the in vitro biochemical assay using ADP-Glo™ (Promega, V9102). The ADP-Glo™ kinase assay is performed in two steps once the reaction is complete. The first step is to deplete any unconsumed ATP in the reaction. The second step is to convert the reaction product ADP to ATP, which will be utilized by the luciferase to generate luminesce and be detected by a luminescence reader, such as Envision.
BRM, sequence (P51531 whole entry): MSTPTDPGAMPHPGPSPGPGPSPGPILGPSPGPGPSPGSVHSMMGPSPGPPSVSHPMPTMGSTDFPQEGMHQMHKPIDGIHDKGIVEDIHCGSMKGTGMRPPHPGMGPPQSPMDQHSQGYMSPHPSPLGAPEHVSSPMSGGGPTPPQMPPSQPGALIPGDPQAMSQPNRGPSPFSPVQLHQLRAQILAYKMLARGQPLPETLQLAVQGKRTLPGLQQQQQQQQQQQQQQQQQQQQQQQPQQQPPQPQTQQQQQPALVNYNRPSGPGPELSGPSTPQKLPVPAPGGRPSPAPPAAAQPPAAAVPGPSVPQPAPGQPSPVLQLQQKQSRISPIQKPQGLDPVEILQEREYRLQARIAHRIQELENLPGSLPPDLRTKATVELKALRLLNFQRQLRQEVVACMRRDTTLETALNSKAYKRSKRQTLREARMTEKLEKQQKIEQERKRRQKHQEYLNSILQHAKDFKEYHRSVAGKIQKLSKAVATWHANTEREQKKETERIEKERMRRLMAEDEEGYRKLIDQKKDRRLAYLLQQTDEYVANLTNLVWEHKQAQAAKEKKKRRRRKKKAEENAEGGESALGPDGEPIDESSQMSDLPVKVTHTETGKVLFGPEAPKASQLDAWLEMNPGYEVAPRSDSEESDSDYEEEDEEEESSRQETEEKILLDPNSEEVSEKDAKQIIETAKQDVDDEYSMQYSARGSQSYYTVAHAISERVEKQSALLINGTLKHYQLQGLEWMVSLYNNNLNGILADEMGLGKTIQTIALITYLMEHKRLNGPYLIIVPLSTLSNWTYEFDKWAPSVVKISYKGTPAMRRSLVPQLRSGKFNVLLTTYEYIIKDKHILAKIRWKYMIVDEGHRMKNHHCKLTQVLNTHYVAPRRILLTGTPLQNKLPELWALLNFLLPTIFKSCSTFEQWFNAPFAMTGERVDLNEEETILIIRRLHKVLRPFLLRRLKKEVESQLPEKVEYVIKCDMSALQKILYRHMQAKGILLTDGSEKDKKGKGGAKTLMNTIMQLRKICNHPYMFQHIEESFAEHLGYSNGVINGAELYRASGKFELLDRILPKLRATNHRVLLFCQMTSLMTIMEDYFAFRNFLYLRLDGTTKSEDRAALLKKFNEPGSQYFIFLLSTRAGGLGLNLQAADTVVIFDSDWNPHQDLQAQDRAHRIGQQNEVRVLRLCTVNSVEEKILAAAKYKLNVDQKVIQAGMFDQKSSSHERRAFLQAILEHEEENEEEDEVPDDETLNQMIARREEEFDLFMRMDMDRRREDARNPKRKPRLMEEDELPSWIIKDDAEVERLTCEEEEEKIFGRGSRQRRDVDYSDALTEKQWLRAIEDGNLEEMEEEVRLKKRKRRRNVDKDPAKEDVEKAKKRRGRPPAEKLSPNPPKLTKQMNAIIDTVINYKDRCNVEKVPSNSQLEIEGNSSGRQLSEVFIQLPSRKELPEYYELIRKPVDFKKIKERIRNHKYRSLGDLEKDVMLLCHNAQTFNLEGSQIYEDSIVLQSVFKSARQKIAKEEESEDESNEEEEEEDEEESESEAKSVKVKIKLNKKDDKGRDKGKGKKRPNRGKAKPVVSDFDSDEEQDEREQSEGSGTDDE
(§2) Then following addition of 5 μL of ADP-Glo™ Reagent provided in the kit, the reaction incubates at room temperature for 40 minutes. Then 10 μL of Kinase Detection Reagent provided in the kit is added to convert ADP to ATP, and the reaction incubates at room temperature for 60 minutes. Finally, luminescence measurement is collected with a plate-reading luminometer, such as Envision.
(§3) The ADP-Glo™ kinase assay is performed in two steps once the reaction is complete. The first step is to deplete any unconsumed ATP in the reaction. The second step is to convert the reaction product ADP to ATP, which will be utilized by the luciferase to generate luminesce and be detected by a luminescence reader, such as Envision.

For the next assay, the target named is BRG-1 (Homo sapiens, UniProt P51532). Kind of assay: ATPase catalytic activity assay of BRG-1 (ADP-Glo). The assay is classed as biochemical. The note with it: ATPase catalytic activity, ADP-Glo, 30 nM BRG-1, 400 μM ATP; for IC50: read-out: BRG1 IC50 (μM)*; for Emax: read-out: BRG1 Max % Inhibition. As for the experimental part:
as §1, §2, §3
On the technique in general: ADP-Glo turns the ADP formed in a reaction into a luminescent signal.

BRG-1, sequence (P51532 whole entry): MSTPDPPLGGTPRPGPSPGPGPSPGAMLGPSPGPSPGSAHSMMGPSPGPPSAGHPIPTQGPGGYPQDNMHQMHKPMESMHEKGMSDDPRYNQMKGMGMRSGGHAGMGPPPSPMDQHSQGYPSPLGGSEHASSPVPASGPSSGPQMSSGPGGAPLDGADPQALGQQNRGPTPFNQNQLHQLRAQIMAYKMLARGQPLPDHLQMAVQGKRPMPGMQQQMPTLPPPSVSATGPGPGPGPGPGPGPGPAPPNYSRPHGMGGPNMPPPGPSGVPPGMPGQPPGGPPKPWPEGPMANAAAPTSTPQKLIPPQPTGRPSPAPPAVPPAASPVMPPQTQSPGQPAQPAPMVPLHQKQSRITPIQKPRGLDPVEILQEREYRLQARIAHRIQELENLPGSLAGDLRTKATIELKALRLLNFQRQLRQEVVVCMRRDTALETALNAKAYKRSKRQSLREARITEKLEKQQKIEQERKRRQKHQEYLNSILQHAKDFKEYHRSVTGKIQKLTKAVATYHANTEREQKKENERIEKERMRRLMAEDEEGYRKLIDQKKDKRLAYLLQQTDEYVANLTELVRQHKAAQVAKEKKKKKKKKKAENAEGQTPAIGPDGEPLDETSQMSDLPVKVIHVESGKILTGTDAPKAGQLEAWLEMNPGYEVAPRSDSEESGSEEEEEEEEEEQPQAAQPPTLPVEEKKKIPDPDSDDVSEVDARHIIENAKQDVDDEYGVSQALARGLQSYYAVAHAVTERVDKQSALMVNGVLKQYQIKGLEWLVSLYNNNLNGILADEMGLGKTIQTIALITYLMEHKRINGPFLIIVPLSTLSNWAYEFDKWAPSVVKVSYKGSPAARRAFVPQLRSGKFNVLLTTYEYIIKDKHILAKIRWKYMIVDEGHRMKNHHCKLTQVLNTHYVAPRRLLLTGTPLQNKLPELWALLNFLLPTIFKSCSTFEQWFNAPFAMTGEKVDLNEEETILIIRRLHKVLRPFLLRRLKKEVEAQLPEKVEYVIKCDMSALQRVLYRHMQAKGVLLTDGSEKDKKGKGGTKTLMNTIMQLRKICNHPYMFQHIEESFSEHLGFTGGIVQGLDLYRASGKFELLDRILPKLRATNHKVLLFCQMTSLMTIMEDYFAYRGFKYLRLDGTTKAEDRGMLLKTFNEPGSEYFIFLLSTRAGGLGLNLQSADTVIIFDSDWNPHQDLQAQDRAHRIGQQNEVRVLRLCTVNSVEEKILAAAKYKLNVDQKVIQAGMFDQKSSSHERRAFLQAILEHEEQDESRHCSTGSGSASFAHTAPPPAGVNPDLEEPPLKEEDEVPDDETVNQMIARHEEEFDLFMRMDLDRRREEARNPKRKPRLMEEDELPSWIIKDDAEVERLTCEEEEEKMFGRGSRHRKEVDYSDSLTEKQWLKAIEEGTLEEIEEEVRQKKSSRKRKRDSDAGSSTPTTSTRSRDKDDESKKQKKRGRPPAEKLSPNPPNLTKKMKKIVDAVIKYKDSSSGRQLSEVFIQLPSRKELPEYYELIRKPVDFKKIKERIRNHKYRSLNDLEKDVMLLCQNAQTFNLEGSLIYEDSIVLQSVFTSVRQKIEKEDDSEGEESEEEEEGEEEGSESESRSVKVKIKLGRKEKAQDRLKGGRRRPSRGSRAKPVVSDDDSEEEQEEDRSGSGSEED

`C[C@@H]1CN(c2cccc(-c3csc(NC(=O)CNC(=O)c4cccc([C@@]5(C)COC[C@@H]5O)c4)n3)n2)C[C@H](C)O1` (stereo in doubt) [Compound 413, N-(2-((4-(6-((cis)-2,6-dimethylmorpholino)pyridin-2-yl)thiazol-2-yl)amino)-2-oxoethyl)-3-((cis)-4-hydroxy-3-methyltetrahydrofuran-3-yl)benzamide]: at BRM, the “BRM Max % Inhibition” value is above 95% and the IC50 (usually the point on the concentration scale where inhibition reaches its midpoint) lay within 0.1 to 1 µM. On BRG-1, the half-inhibitory concentration (IC50) was in the range of 1 to 5 µM and the Emax is above 95%.
As to `C[C@H](NC(=O)c1ccc2c(c1)C(C)(CO)CC2)C(=O)Nc1nc(-c2cccc(N3CCC3)c2)cs1` (stereo in doubt) [Compound 414, (S)-N-((S)-1-((4-(3-(azetidin-1-yl)phenyl)thiazol-2-yl)amino)-1-oxopropan-2-yl)-3-(hydroxymethyl)-3-methyl-2,3-dihydro-1H-indene-5-carboxamide], at BRM, the “BRM Max % Inhibition” value is above 95% and the IC50 fell in the range of 0.1 to 1 µM. At BRG-1, the IC50 fell in the range of 0.1 to 1 µM and the Emax was above 95%.
Take `CC1(C#N)CCOc2ccc(C(=O)NCC(=O)Nc3nc(-c4cccc(N5CCC5)c4)cs3)cc21` (stereo in doubt) [Compound 416, (S)-N-(2-((4-(3-(azetidin-1-yl)phenyl)thiazol-2-yl)amino)-2-oxoethyl)-4-cyano-4-methylchromane-6-carboxamide]: at BRM, the “BRM Max % Inhibition” value was above 95% and the IC50 is below 0.1 µM. Besides, at BRG-1, the IC50 is 0.1 to 1 µM and the Emax is above 95%.
On the same counts, the results for `C[C@@H]1CN(c2cccc(-c3csc(NC(=O)CNC(=O)c4ccc5c(c4)C(C)(C#N)CO5)n3)c2)C[C@H](C)O1` (stereo in doubt) [Compound 417, (R)-3-cyano-N-(2-((4-(3-((cis)-2,6-dimethylmorpholino)phenyl)thiazol-2-yl)amino)-2-oxoethyl)-3-methyl-2,3-dihydrobenzofuran-5-carboxamide] are above 95%, below 0.1 µM, 0.1 to 1 µM and above 95%.
Taken in the same sequence, the figures for `C[C@@H]1CN(c2cccc(-c3csc(NC(=O)CNC(=O)c4ccc5c(c4)C(C)(C#N)COC5)n3)n2)C[C@H](C)O1` (stereo in doubt) [Compound 420, (R)-4-cyano-N-(2-((4-(6-((cis)-2,6-dimethylmorpholino)pyridin-2-yl)thiazol-2-yl)amino)-2-oxoethyl)-4-methylisochromane-6-carboxamide] were above 95%, below 0.1 µM, below 0.1 µM and above 95%.
As to `C[C@@H]1CN(c2cccc(-c3csc(NC(=O)CNC(=O)c4ccc5c(c4)C(C)(C#N)COC5)n3)n2)C[C@H](C)O1` (stereo in doubt) [Compound 421, (S)-4-cyano-N-(2-((4-(6-((cis)-2,6-dimethylmorpholino)pyridin-2-yl)thiazol-2-yl)amino)-2-oxoethyl)-4-methylisochromane-6-carboxamide], at BRM, the “BRM Max % Inhibition” value is given as above 80% and the IC50 is 1 to 5 µM. On BRG-1, the IC50 is above 5 µM and the Emax was above 80%.
With `CC1(C#N)CCOc2ccc(C(=O)NCC(=O)Nc3nc(-c4cccc(C5(F)COC5)c4)cs3)cc21` (stereo in doubt) [Compound 422, (S)-4-cyano-N-(2-((4-(3-(3-fluorooxetan-3-yl)phenyl)thiazol-2-yl)amino)-2-oxoethyl)-4-methylchromane-6-carboxamide], at BRM, the “BRM Max % Inhibition” value is above 95% and the IC50 lay within 0.1 to 1 µM. On BRG-1, the IC50 lay in the range of 1 to 5 µM and the Emax was above 95%.
Taken in the same sequence, the figures for `CC1(C#N)CCOc2ccc(C(=O)NCC(=O)Nc3nc(-c4cccc(C5COC5)c4)cs3)cc21` (stereo in doubt) [Compound 423, (S)-4-cyano-4-methyl-N-(2-((4-(3-(oxetan-3-yl)phenyl)thiazol-2-yl)amino)-2-oxoethyl)chromane-6-carboxamide] were above 95%, below 0.1 µM, 0.1 to 1 µM and above 95%.
In the case of `C[C@@H]1CN(c2cccc(-c3csc(NC(=O)CNC(=O)c4cccc([C@H]5COC[C@H]5O)c4)n3)n2)C[C@H](C)O1` (stereo in doubt) [Compound 425, N-(2-((4-(6-((cis)-2,6-dimethylmorpholino)pyridin-2-yl)thiazol-2-yl)amino)-2-oxoethyl)-3-((trans)-4-hydroxytetrahydrofuran-3-yl)benzamide], on BRM, the “BRM Max % Inhibition” value was above 85% and the IC50 lay in the range of 0.1 to 1 µM. On BRG-1, the IC50 is above 5 µM and the Emax is above 85%.
Taken in the same sequence, the figures for `C[C@@H]1CN(c2cccc(-c3csc(NC(=O)CNC(=O)c4ccnc(C(C)(C#N)CO)c4)n3)c2)C[C@H](C)O1` (stereo in doubt) [Compound 427, 2-((R)-2-cyano-1-hydroxypropan-2-yl)-N-(2-((4-(3-((cis)-2,6-dimethylmorpholino)phenyl)thiazol-2-yl)amino)-2-oxoethyl)isonicotinamide] were above 85%, 0.1 to 1 µM, above 5 µM and above 85%.
Taken in the same sequence, the figures for `CC1(C#N)CCOc2ccc(C(=O)NCC(=O)Nc3nc(-c4cccc([C@H]5CC5(F)F)c4)cs3)cc21` (stereo in doubt) [Compound 428, (S)-4-cyano-N-(2-((4-(3-((R)-2,2-difluorocyclopropyl)phenyl)thiazol-2-yl)amino)-2-oxoethyl)-4-methylchromane-6-carboxamide] were above 95%, below 0.1 µM, 0.1 to 1 µM and above 95%.
On the same counts, the results for `CC1(C#N)CCOc2ccc(C(=O)NCC(=O)Nc3nc(-c4cccc([C@@H]5CC5(F)F)c4)cs3)cc21` (stereo in doubt) [Compound 429, (S)-4-cyano-N-(2-((4-(3-((S)-2,2-difluorocyclopropyl)phenyl)thiazol-2-yl)amino)-2-oxoethyl)-4-methylchromane-6-carboxamide] are above 95%, below 0.1 µM, 1 to 5 µM and above 95%.
`CC1(C#N)CCOc2ccc(C(=O)NCC(=O)Nc3nc(-c4cccc(C(F)F)n4)cs3)cc21` (stereo in doubt) [Compound 430, (S)-4-cyano-N-(2-((4-(6-(difluoromethyl)pyridin-2-yl)thiazol-2-yl)amino)-2-oxoethyl)-4-methylchromane-6-carboxamide]: on BRM, the “BRM Max % Inhibition” value is recorded as above 95% and the IC50 fell in the range of 0.1 to 1 µM. Also, on BRG-1, the IC50 fell in the range of 1 to 5 µM and the Emax is above 95%.
Regarding `COc1cccc(-c2csc(NC(=O)CNC(=O)c3ccc4c(c3)C(C)(C#N)CCO4)n2)c1` (stereo in doubt) [Compound 431, (S)-4-cyano-N-(2-((4-(3-methoxyphenyl)thiazol-2-yl)amino)-2-oxoethyl)-4-methylchromane-6-carboxamide], at BRM, the “BRM Max % Inhibition” value is given as above 95% and the IC50 is below 0.1 µM. Further, on BRG-1, the IC50 lay within 0.1 to 1 µM and the Emax was above 95%.
For `Cc1cncc(-c2cccc(-c3csc(NC(=O)CNC(=O)c4ccc5c(c4)C(C)(CO)CC5)n3)c2)n1` (stereo in doubt) [Compound 432, (S)-3-(hydroxymethyl)-3-methyl-N-(2-((4-(3-(6-methylpyrazin-2-yl)phenyl)thiazol-2-yl)amino)-2-oxoethyl)-2,3-dihydro-1H-indene-5-carboxamide], at BRM, the “BRM Max % Inhibition” value was above 95% and the IC50 is below 0.1 µM. In addition, on BRG-1, the IC50 lay in the range of 0.1 to 1 µM and the Emax was above 95%.
Taken in the same sequence, the figures for `CC1(C#N)CCOc2ccc(C(=O)NCC(=O)Nc3nc(-c4cccc(C5CC5)n4)cs3)cc21` (stereo in doubt) [Compound 439, (S)-4-cyano-N-(2-((4-(6-cyclopropylpyridin-2-yl)thiazol-2-yl)amino)-2-oxoethyl)-4-methylchromane-6-carboxamide] were above 95%, 0.1 to 1 µM, 1 to 5 µM and above 95%.
On to `CC1(C#N)CCOc2ccc(C(=O)NCC(=O)Nc3nc(-c4cccc(-c5ccncc5)c4)cs3)cc21` (stereo in doubt) [Compound 440, (S)-4-cyano-4-methyl-N-(2-oxo-2-((4-(3-(pyridin-4-yl)phenyl)thiazol-2-yl)amino)ethyl)chromane-6-carboxamide], for which, on BRM, the “BRM Max % Inhibition” value is on record as above 95% and the 50% inhibitory concentration (IC50) is below 0.1 µM. In addition, on BRG-1, the IC50 is below 0.1 µM and the Emax is above 95%.
`C[C@@H]1CN(c2cccc(-c3csc(NC(=O)CNC(=O)c4cccc(C5(F)CCOC5)c4)n3)n2)C[C@H](C)O1` (stereo in doubt) [Compound 441, N-(2-((4-(6-((cis)-2,6-dimethylmorpholino)pyridin-2-yl)thiazol-2-yl)amino)-2-oxoethyl)-3-((R)-3-fluorotetrahydrofuran-3-yl)benzamide]: on BRM, the “BRM Max % Inhibition” value was above 90% and the IC50 lay in the range of 0.1 to 1 µM. Also, at BRG-1, the IC50 was above 5 µM and the Emax was above 90%.

(Values after US12685735B2 (Foghorn Therapeutics Inc., priority 2020, dated 2026).)
